Results reported in patent publication US20110166121A1 (LG LIFE SCIENCES LTD., priority 2008, published 2011).

System: Human platelet aggregation caused by ADP
Assay: Inhibition of ADP-induced platelet aggregation (Mimic-human PRP)
Assay type: cell-based
Settings: 20 μM ADP, human platelet concentrate diluted with PPP, absorption at 595 nm
Description: Platelet Preparation for Aggregation Studies
Human platelet aggregation reaction test is a functional experiment method to verify whether a test compound is an agonist or an antagonist to ADP receptor. […] The platelet product isolated from whole blood was purchased from Chung-Nam blood center (Dae-joen, South Korea). The platelet was isolated from 400 mL of whole blood containing 56 mL of CPDA-1 anticoagulant. To isolate the platelet product, 400 mL of whole blood was centrifuged at 260×g for 5 minutes, and then obtained PRP (platelet rich plasma) was secondary centrifuged at 370×g for 6 minutes. Platelet pellet (10^9/mL) was suspended with 45 mL of plasma and then agitated over 1 hour at 22° C. blood reservoir to stabilize it. The stabilized platelet product was used in the experiment within 24 hours. PCs (Platelet Concentrates) were gently transferred to a new 50 ml-falcon tube. The number of platelet was counted by using animal blood counter (ABC Vet, ABX diagnostics, France). The volume of 30 mL of PCs collected from same donor was centrifuged at 1500 g for 10 min at room temperature to prepare platelet-poor plasma (PPP). The platelet count was adjusted to platelet number of 3˜4×10^8/mL by diluting with PPP.
Evaluation on Inhibitory Effect of ADP-Induced Aggregation
Inhibition of ADP-induced aggregation was determined in 96-well flat-bottom plates (Costar, USA) at room temperature. The diluted platelet was aliquoted into each well of 96 well plate in the volume of 188 μl. […] The platelet including test compounds was immediately mixed on a shaker at 1050 rpm for 1 min and incubated at room temperature for 20 min. Then, 10 μL volume of 400 μM ADP was added: the final concentration of 20 μM ADP in the total reaction volume of 0.2 mL/well. After shaking of the plate at room temperature for 3 min, the absorption of the samples was determined at 595 nm using a microtiter plate reader (Softmax, Molecular Devices).
A dose-dependent curve on serial dilutions of ADP was accomplished by adding vehicle (DMSO) instead of antagonists in order to calculate EC50 of ADP. Inhibition of aggregation was calculated from the increase of absorption at 595 nm at 3 min of the reaction incubation, compared to results of absorption between the 0 and 20 μM ADP control without antagonists. Sigmoidal dose-response curves and Ki were derived by non-linear regression analysis using the Prism software (GraphPad, San Diego Calif.).

Structure (SMILES)	Ki [nM]
CCCc1cc2c(N3CCn4c(nnc4C(F)(F)F)C3)nc(N3CC[C@H](C(=O)N(C)C)C3)nc2s1 [Example 1-88, (S)-1-[6-Propyl-4-(3-trifluoromethyl-5,6-dihydro-8H-[1,2,4]triazolo[4,3-a]pyrazin-7-yl)-thieno[2,3-d]pyrimidin-2-yl]-pyrrolidine-3-carboxylic acid dimethylamide]	16
CCCc1cc2c(N3CCn4c(nnc4C(F)(F)F)C3)nc(N3CCCC(C(N)=O)C3)nc2s1 (stereo not shown) [Example 1-92, 1-[6-Propyl-4-(3-trifluoromethyl-5,6-dihydro-8H-[1,2,4]triazolo[4,3-a]pyrazin-7-yl)-thieno[2,3-d]pyrimidin-2-yl]-piperidine-3-carboxylic acid amide]	30
CCCc1cc2c(N3CCn4c(nnc4C(F)(F)F)C3)nc(N3CCCC(C(=O)NC)C3)nc2s1 (stereo not shown) [Example 1-93, 1-[6-Propyl-4-(3-trifluoromethyl-5,6-dihydro-8H-[1,2,4]triazolo[4,3-a]pyrazin-7-yl)-thieno[2,3-d]pyrimidin-2-yl]-piperidine-3-carboxylic acid methylamide]	204
CCCc1cc2c(N3CCn4c(nnc4C(F)(F)F)C3)nc(N3CCCC(C(=O)N(C)C)C3)nc2s1 (stereo not shown) [Example 1-94, 1-[6-Propyl-4-(3-trifluoromethyl-5,6-dihydro-8H-[1,2,4]triazolo[4,3-a]pyrazin-7-yl)-thieno[2,3-d]pyrimidin-2-yl]-piperidine-3-carboxylic acid dimethylamide]	29
CCCc1cc2c(N3CCn4c(nnc4C(F)(F)F)C3)nc(N3CCCC(C(=O)NO)C3)nc2s1 (stereo not shown) [Example 1-95, 1-[6-Propyl-4-(3-trifluoromethyl-5,6-dihydro-8H-[1,2,4]triazolo[4,3-a]pyrazin-7-yl)-thieno[2,3-d]pyrimidin-2-yl]-piperidine-3-carboxylic acid hydroxyamide]	11
CCCc1cc2c(N3CCn4c(nnc4C(F)(F)F)C3)nc(N3CC[C@H](NC(=O)CO)C3)nc2s1 [Example 1-100, 2-Hydroxy-N-{(S)-1-[6-propyl-4-(3-trifluoromethyl-5,6-dihydro-8H-[1,2,4]triazolo[4,3-a]pyrazin-7-yl)-thieno[2,3-d]pyrimidin-2-yl]-pyrrolidin-3-yl}-acetamide]	6
CCCc1cc2c(N3CCn4c(nnc4C(F)(F)F)C3)nc(N3CC[C@H](NC(=O)CN)C3)nc2s1 [Example 1-101, 2-Amino-N-{(S)-1-[6-propyl-4-(3-trifluoromethyl-5,6-dihydro-8H-[1,2,4]triazolo[4,3-a]pyrazin-7-yl)-thieno[2,3-d]pyrimidin-2-yl]-pyrrolidin-3-yl}-acetamide]	3.5
CCCc1cc2c(N3CCn4c(nnc4C(F)(F)F)C3)nc(N3CC[C@H](NC(=O)COC)C3)nc2s1 [Example 1-102, 2-Methoxy-N-{(S)-1-[6-propyl-4-(3-trifluoromethyl-5,6-dihydro-8H-[1,2,4]triazolo[4,3-a]pyrazin-7-yl)-thieno[2,3-d]pyrimidin-2-yl]-pyrrolidin-3-yl}-acetamide]	8.6
CCCc1cc2c(N3CCn4c(nnc4C(F)(F)F)C3)nc(N3CC[C@H](NC(C)=O)C3)nc2s1 [Example 1-105, N-{(S)-1-[6-Propyl-4-(3-trifluoromethyl-5,6-dihydro-8H-[1,2,4]triazolo[4,3-a]pyrazin-7-yl)-thieno[2,3-d]pyrimidin-2-yl]-pyrrolidin-3-yl}-acetamide]	4.4
CCCc1cc2c(N3CCn4c(nnc4C(F)(F)F)C3)nc(N3CC[C@H](NC(=O)C(F)(F)F)C3)nc2s1 [Example 1-106, 2,2,2-Trifluoro-N-{(S)-1-[6-propyl-4-(3-trifluoromethyl-5,6-dihydro-8H-[1,2,4]triazolo[4,3-a]pyrazin-7-yl)-thieno[2,3-d]pyrimidin-2-yl]-pyrrolidin-3-yl}-acetamide]	16
CCCc1cc2c(N3CCn4c(nnc4C(F)(F)F)C3)nc(N3CC[C@H](NC(=O)C(C)(C)O)C3)nc2s1 [Example 1-107, 2-Hydroxy-2-methyl-N-{(S)-1-[6-propyl-4-(3-trifluoromethyl-5,6-dihydro-8H-[1,2,4]triazolo[4,3-a]pyrazin-7-yl)-thieno[2,3-d]pyrimidin-2-yl]-pyrrolidin-3-yl}-propionamide]	19
CCCc1cc2c(N3CCn4c(nnc4C(F)(F)F)C3)nc(N3CC[C@H](NC(=O)C4CC4)C3)nc2s1 [Example 1-108, Cyclopropanecarboxylic Acid {(S)-1-[6-propyl-4-(3-trifluoromethyl-5,6-dihydro-8H-[1,2,4]triazolo[4,3-a]pyrazin-7-yl)-thieno[2,3-d]pyrimidin-2-yl]-pyrrolidin-3-yl}-amide]	9.3
CCCc1cc2c(N3CCn4c(nnc4C(F)(F)F)C3)nc(N3CC(N)C(O)C3)nc2s1 (stereo not shown) [Example 1-114, 4-Amino-1-[6-propyl-4-(3-trifluoromethyl-5,6-dihydro-8H-[1,2,4]triazolo[4,3-a]pyrazin-7-yl)-thieno[2,3-d]pyrimidin-2-yl]-pyrrolidin-3-ol]	3.8
CCCc1cc2c(N3CCn4c(nnc4C(F)(F)F)C3)nc(N(CCO)CC(=O)O)nc2s1 [Example 1-118, {(2-Hydroxy-ethyl)-[6-propyl-4-(3-trifluoromethyl-5,6-dihydro-8H-[1,2,4]triazolo[4,3-a]pyrazin-7-yl)-thieno[2,3-d]pyrimidin-2-yl]-amino}-acetic acid]	34
CCCc1cc2c(N3CCn4c(nnc4C(F)(F)F)C3)nc(N3CC[C@H](NC(=O)Cc4csc(N)n4)C3)nc2s1 [Example 1-119, 2-(2-Amino-thiazol-4-yl)-N-{(S)-1-[6-propyl-4-(3-trifluoromethyl-5,6-dihydro-8H-[1,2,4]triazolo[4,3-a]pyrazin-7-yl)-thieno[2,3-d]pyrimidin-2-yl]-pyrrolidin-3-yl}-acetamide]	7.2
CCCc1cc2c(N3CCn4c(nnc4C(F)(F)F)C3)nc(N3CC[C@H](NC(=O)Cc4ccccn4)C3)nc2s1 [Example 1-121, N-{(S)-1-[6-Propyl-4-(3-trifluoromethyl-5,6-dihydro-8H-[1,2,4]triazolo[4,3-a]pyrazin-7-yl)-thieno[2,3-d]pyrimidin-2-yl]-pyrrolidin-3-yl}-2-pyridin-2-yl-acetamide]	19
CCCc1cc2c(N3CCn4c(nnc4C(F)(F)F)C3)nc(N3CCS(=O)(=O)CC3)nc2s1 [Example 1-124, 7-[2-(1,1-Dioxo-1lambda*6*-thiomorpholin-4-yl)-6-propyl-thieno[2,3-d]pyrimidin-4-yl]-3-trifluoromethyl-5,6,7,8-tetrahydro-[1,2,4]triazolo[4,3-a]pyrazine]	3.9
CCCc1cc2c(N3CCn4c(nnc4C(F)(F)F)C3)nc(N3C=CC4=NCCNC4=C3)nc2s1 [Example 1-133, 6-[6-Propyl-4-(3-trifluoromethyl-5,6-dihydro-8H-[1,2,4]triazolo[4,3-a]pyrazin-7-yl)thieno[2,3-d]pyrimidin-2-yl]-2,3,4,6-tetrahydro-pyrido[3,4-b]pyrazine]	145
CCCc1cc2c(N3CCn4c(nnc4C(F)(F)F)C3)nc(OCCNCC(=O)OCC)nc2s1 [Example 3-54, {2-[6-Propyl-4-(3-trifluoromethyl-5,6-dihydro-8H-[1,2,4]triazolo[4,3-a]pyrazin-7-yl)-thieno[2,3-d]pyrimidin-2-yloxy]-ethylamino}-acetic acid ethyl ester]	206
CCCc1cc2c(N3CCn4c(nnc4C(F)(F)F)C3)nc(OCCN(CC(=O)OCC)C(=O)C3CC3)nc2s1 [Example 3-56, (Cyclopropanecarbonyl-{2-[6-propyl-4-(3-trifluoromethyl-5,6-dihydro-8H-[1,2,4]triazolo[4,3-a]pyrazin-7-yl)-thieno[2,3-c]pyrimidin-2-yloxy]-ethyl}-amino)-acetic acid ethyl ester]	75
CCCc1cc2c(N3CCn4c(nnc4C(F)(F)F)C3)nc(OCCN(CC(=O)O)C(=O)C3CC3)nc2s1 [Example 3-57, (Cyclopropanecarbonyl-{2-[6-propyl-4-(3-trifluoromethyl-5,6-dihydro-8H-[1,2,4]triazolo[4,3-a]pyrazin-7-yl)-thieno[2,3-d]pyrimidin-2-yloxy]-ethyl}-amino)-acetic acid]	23
CCCc1cc2c(N3CCn4c(nnc4C(F)(F)F)C3)nc(OCCNC(=O)C3CC3)nc2s1 [Example 3-59, Cyclopropanecarboxylic Acid {2-[6-propyl-4-(3-trifluoromethyl-5,6-dihydro-8H-[1,2,4]triazolo[4,3-a]pyrazin-7-yl)-thieno[2,3-d]pyrimidin-2-yloxy]-ethyl}-amide]	1.5
